The target in the test is T1, M-phase inducer phosphatase 2 (Homo sapiens, UniProt P30305).
T1 sequence (P30305 whole entry): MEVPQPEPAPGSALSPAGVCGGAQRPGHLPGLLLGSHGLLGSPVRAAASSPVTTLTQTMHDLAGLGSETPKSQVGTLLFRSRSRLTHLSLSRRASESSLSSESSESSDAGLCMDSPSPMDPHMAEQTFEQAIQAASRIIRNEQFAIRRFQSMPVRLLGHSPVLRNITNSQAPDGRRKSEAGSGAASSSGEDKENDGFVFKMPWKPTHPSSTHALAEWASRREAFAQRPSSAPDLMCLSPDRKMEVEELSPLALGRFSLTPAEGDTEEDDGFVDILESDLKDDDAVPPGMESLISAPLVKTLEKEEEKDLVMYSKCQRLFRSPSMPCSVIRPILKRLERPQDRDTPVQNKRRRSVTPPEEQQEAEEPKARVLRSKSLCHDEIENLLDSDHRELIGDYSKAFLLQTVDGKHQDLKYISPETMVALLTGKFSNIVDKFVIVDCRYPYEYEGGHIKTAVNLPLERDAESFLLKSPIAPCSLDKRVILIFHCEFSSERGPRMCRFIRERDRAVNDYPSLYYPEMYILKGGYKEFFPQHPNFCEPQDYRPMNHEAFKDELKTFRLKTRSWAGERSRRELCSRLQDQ
In words: Cdc25B inhibition under reducing thiol conditions, late-stage follow-up, Cdc25B inhibitor project, biochemical, beta-mercaptoethanol present, catalytic domain, IC50 (AID 670).
For the compound `O=C(Nc1ccc2nc(-c3ccco3)c(-c3ccco3)nc2c1)N1CCCCCC1`, the IC50 (usually the concentration at which inhibition is half-maximal) was 19.2 µM.
In turn, `Cc1ccc2c(c1C)NC(C(=O)O)C1CC=CC21` (stereo not given) had an IC50 of 4.2 µM.
For the compound `O=C(O)C1Nc2c(O)cccc2C2C=CCC12` (stereo not given), the IC50 is 7.42 µM.
On to `Cn1ncnc2c(=O)n(C)c(=O)nc1-2`, for which half-maximal inhibition (IC50) required 32.4 µM.
`[O-]/[N+](=C\c1ccncc1)c1ccccc1` registered an IC50 of over 50 µM.
In the case of `COc1cccc2c(C)c(C(=O)O)[nH]c12`, the IC50 came to 6.35 µM.
Take `O=C1C=Cc2ccccc2C1=O` [1,2-dihydronaphthalene-1,2-dione]: the IC50 came to 20.4 µM.
In the case of `CCn1nc(-c2ccccc2)nc2c(=O)n(C)c(=O)nc1-2` [1-Ethyl-6-methyl-3-phenyl-1H-pyrimido[5,4-e][1,2,4]triazine-5,7-dione], the IC50 was over 50 µM.
`[O-]/[N+](=C\c1ccc(OC(F)F)cc1)c1ccccc1` [1-[4-(difluoromethoxy)phenyl]-N-phenylmethanimine oxide] yielded an IC50 of over 50 µM.
With `CCn1nc(-c2cccs2)nc2c(=O)n(C)c(=O)nc1-2` [1-ethyl-6-methyl-3-thiophen-2-yl-pyrimido[5,4-e][1,2,4]triazine-5,7-dione], the IC50 stood at 41.8 µM.
Turning to `O=C1Cc2ccccc2C(=O)N1CCc1ccccc1` [2-(2-phenylethyl)-4H-isoquinoline-1,3-dione], the half-inhibitory concentration (IC50) is over 50 µM.
`N#Cc1c(N)sc(=S)c2c1CCN(Cc1ccccc1)C2` [3-Amino-7-benzyl-1-thioxo-5,6,7,8-tetrahydro-1H-thiopyrano[3,4-c]pyridine-4-carbonitrile] showed an IC50 of 33.1 µM.
Turning to `Cc1ccccc1Nc1cc2ccccc2c(O)n1` [3-[(2-methylphenyl)amino]-2H-isoquinolin-1-one], the IC50 is over 50 µM.
The compound `COc1ccc(Br)cc1C=c1sc2nc(-c3ccco3)nn2c1=O` [5-[(5-bromanyl-2-methoxy-phenyl)methylidene]-2-(furan-2-yl)-[1,3]thiazolo[3,2-b][1,2,4]triazol-6-one] showed an IC50 of 1.78 µM.
The result for `CC(=O)Nc1cc(OC(C)=O)c2nonc2c1OC(C)=O` [Acetic acid 7-acetoxy-5-acetylamino-benzo[1,2,5]oxadiazol-4-yl ester] reads over 50 µM; that for `CCOC(=O)C(C(=O)OCC)c1cc(Br)c2noc3c2c1C(=O)c1ccccc1-3` [MLS000038842], over 50 µM.
In turn, `Oc1nc(Nc2ccccc2)cc2ccccc12` [MLS000043701] displayed an IC50 of over 50 µM.
Regarding `Cc1c(N=c2c(=O)c3ccccc3c2=O)c(=O)n(-c2ccccc2)n1C` [MLS000105950], the IC50 is over 50 µM.
Regarding `CCOc1ccc2noc3c2c1C(=O)c1ccccc1-3` [MLS000106837], the IC50 is over 50 µM.
Turning to `COc1ccc2noc3c2c1C(=O)c1ccccc1-3` [MLS000106874], the IC50 was over 50 µM.
`c1ccc(CSc2nnc(-c3ccco3)c(-c3ccco3)n2)cc1` [MLS-0029114.0001]: the IC50 came out at 10.3 µM.
The result for `Cc1ccc2c(c1)C1C=CCC1C(C(=O)O)N2` (stereo not given) [MLS-0067149.0001] reads 5.2 µM; that for `O=C(NC1(O)C(=O)c2ccccc2C1=O)c1ccccc1` [N-(2-hydroxy-1,3-dioxo-2-indenyl)benzamide], over 50 µM; that for `N#Cc1c(N2CCCC2)nc(N)c2c(N)nc(N3CCCC3)cc12` [SMR000061605], over 50 µM.
`Nc1cccc2cnccc12` [isoquinolin-5-amine] came in with an IC50 of over 50 µM.

Source of the values: BindingDB's records for doi:10.7270/Q2NS0S8J (University of Pittsburgh, 2007).
